Laboratory results reported in PMC7617456, “Cryptosporidium lysyl-tRNA synthetase inhibitors define the interplay between solubility and permeability required to achieve efficacy” (Science translational medicine, 2024).

Key:
[1] = Plasma protein binding, dog; type: in vitro ADME; details: read-out: PPB (d) (converted)
[2] = Hepatocyte intrinsic clearance, rat; type: in vitro ADME; details: rat hepatocytes
[3] = test system: wild type C. parvum; assay: Neonatal calf efficacy model; type: in vivo; details: for calves receiving treatment that shed Cryptosporidium after day 16 PI: 15 mg/kg BID 7 days, n=7; for Cryptosporidium shedding: 15 mg/kg BID oral 7 days from day 1 PI, to day 16 PI; for fecal scores: 15 mg/kg BID, 0 = normal, 3 = severe, treatment period
Protocol: Calves were enrolled at birth and challenged with wild type C. parvum oocysts (Fig. 5A). DDD489 and DDD508 were administered orally at 15 mg/kg BID for 7 days, beginning on day 1 PI. Blood was sampled and mean free plasma concentration was determined (Fig. S10). Fecal samples were collected from individual animals and parasite shedding was quantified (oocyst/g) by microscopy and quantitative PCR. Fecal samples were collected daily until day 21 PI to monitor for parasite recrudescence. To determine the impact of our late lead compounds on reducing symptoms of cryptosporidiosis, several clinical observations were scored throughout the study.
Calves (Holstein Friesian, British Blue Cross, Limousin Cross, or Aberdeen Angus Cross) were born at commercial dairy farms, provided a colostrum feed, and transported to Moredun Scientific. Calves were enrolled in the study if >30 kg at birth and in good health. Enrolment was staggered due to timing of births.
Calves were assigned to control or treatment groups (7 calves per group) and housed in separate barns (within each barn calves were housed in adjacent, individual pens). Male calves were used in the DDD489 study, and both male and female calves were used in the DDD508 study (control group: 3 females/4 males; treatment group: 2 females/5 males). Calves were challenged on day 1 post birth with 5x10^5 C. parvum oocysts by oral gavage (Sterling Labs for DDD489; Waterborne Inc. for DDD508).
Starting day 1 PI, vehicle (in 0.5% HPMC, 0.4% Tween 80, 0.5% Benzyl alcohol in sterile water) or treatment (DDD489 or DDD508) were administered by oral gavage twice daily immediately prior to milk feeds, and at least 8 hours apart (± 30 minutes). Vehicle was delivered at a set volume (22.6 ml per occasion) and test compound at 15 mg/kg (maximum volume of 20 ml per occasion; prepared in vehicle). Blood samples were collected from all animals prior to morning treatment on Day 1, then 5 (± 2) minutes, 15 (± 2) minutes, 30 (± 5) minutes, 1, 2, 4, 8 and 24 hours (± 10 minutes) post first daily dose. This sample schedule was repeated on Day 7 for the same animals. Blood samples were processed to plasma. Weight was measured and clinical observations recorded as indicated. Fecal samples were collected daily throughout the study. […]
was limited to staff involved in the study, and separate PPE was dedicated for use with each […]
Specified staff were involved in preparing the vehicle and treatment material and were not involved in its administration. These staff were not involved in taking and recording clinical observations or collecting samples. Staff that administered the vehicle and treatment materials were blinded to the material identity. If staff involved in administration of materials or sample collection became “unblinded” at any point in the study, they were immediately removed from […]
Quantification of Cryptosporidium shedding from calf samples (Moredun Scientific and […]
Oocyst per gram from calf fecal samples was determined by microscopy (performed at MRI) and by qPCR (Pawlowic Lab at the University of Dundee). For microscopy 0.1 g of fecal material was resuspended in 10 ml PBS. 100 microliters of diluted fecal material was incubated with 15 microliters Cryptosporidium FITC Stain (CellLabs) and incubated at 37 °C for 15 minutes. Samples were then mounted on a grided slide and counted using a fluorescent microscope. For qPCR, fecal samples were continuously stored in 4°C and transported to the University of Dundee. DNA was extracted from 100mg of fecal material (unless otherwise noted) using the Zymo Quick-DNA Fecal/Soil Microbe Miniprep Kit (Cambridge Bioscience, catalog #D6010). Once material was suspended in Bashing Bead Buffer we modified the protocol slightly by adding 5 freeze/thaw cycles.(32) DNA was stored in 4°C to await qPCR.
For the standard curve, known amounts of wild-type oocysts were added to 100 mg of uninfected murine fecal sample and DNA was extracted using the protocol detailed above. We […]

[4] = test system: KRS-OE; assay: Transgenic C. parvum NanoLuciferase drug sensitivity assay, KRS-OE; type: cell-based; details: Cryptosporidium parvum, HCT-8, 48 h, read-out: EC50, KRS-OE
[5] = target: CpKRS (Cryptosporidium parvum, UniProt Q5CR27); assay: CpKRS in vitro enzyme assay
Sequence of CpKRS (Q5CR27 entry or part of it): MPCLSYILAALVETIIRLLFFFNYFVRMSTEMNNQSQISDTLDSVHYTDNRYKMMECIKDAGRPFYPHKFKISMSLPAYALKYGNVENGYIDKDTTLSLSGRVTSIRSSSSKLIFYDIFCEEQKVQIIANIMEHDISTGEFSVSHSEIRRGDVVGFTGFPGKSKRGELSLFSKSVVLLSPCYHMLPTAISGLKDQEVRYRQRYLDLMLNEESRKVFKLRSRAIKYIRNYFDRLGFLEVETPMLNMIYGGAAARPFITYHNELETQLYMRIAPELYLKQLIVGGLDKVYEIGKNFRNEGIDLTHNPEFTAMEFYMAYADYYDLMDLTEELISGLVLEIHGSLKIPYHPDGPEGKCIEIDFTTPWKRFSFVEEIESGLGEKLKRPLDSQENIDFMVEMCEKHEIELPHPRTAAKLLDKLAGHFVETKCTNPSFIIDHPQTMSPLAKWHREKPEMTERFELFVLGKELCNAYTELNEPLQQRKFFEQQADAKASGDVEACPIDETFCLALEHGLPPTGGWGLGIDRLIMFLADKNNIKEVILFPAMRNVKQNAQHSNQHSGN
Protocol: CpKRS in vitro enzyme assay (Dundee)
Potency of compounds was determined in 10-point dose-response inhibition curves.
Echo 550 acoustic dispenser (Labcyte). KRS reactions were started by adding enzyme into wells containing substrate and compounds using a Thermo Scientiﬁ c Matrix Wellmate. KRS assays were run in 50 µL reactions (Final concentration: 100 mM HEPES*K pH 7.4, 20 mM
Pyrophosphatase) at room temperature for 7 h. Reactions were stopped by the addition of Biomol green (50 µL: Enzo Life Sciences) with the amount of free phosphate detected by
Samples were all run in duplicate and data was processed and analyzed using ActivityBase

[6] = NOD SCID Gamma mice at MED 30 mg/kg, first and last days of treatment
Description: Figure S6. Blood concentration time profiles for late lead compounds in infected mice.
Mean free blood concentration time profiles following oral administration of late lead compounds to NOD SCID Gamma (A a n d B ) and IFN-Gamma KO (C and D) mice twice daily for 7 days as described in Fig. 1C and Fig. 4A) respectively. Data are mean ± SD (3 mice per group). Blood samples were collected on the first day (squares) and last day (circles) of compound dosing (Day 7 and 13 PI for NOD SCID Gamma, Day 6 and 13 for IFN-Gamma KO). Total drug concentrations were corrected for fraction unbound (fu) in PPB assay […]
mg/kg) was administered to NOD SCID Gamma mice. (B) DDD508 (10 mg/kg) was administered to NOD SCID Gamma mice. Blood concentrations were scaled to 30 mg/kg for comparison, assuming dose linearity. (C) DDD489 (50 mg/kg) was administered to IFN-Gamma KO mice. (D) DDD508 (50 mg/kg) was administered to IFN-Gamma KO mice.
(1 picture or pasted object on this page, not shown here)

[7] = Plasma protein binding, bovine; type: in vitro ADME; details: calf plasma, PPB assay, read-out: fraction unbound (fu)
[8] = Hepatocyte intrinsic clearance, human; type: in vitro ADME; details: human hepatocytes
[9] = Hepatocyte intrinsic clearance, dog; type: in vitro ADME; details: dog hepatocytes
[10] = target: T1, HsKRS (Homo sapiens, UniProt Q15046); assay: HsKRS in vitro enzyme assay; type: biochemical; details: mean (95% confidence interval)
T1 construct: made in house
T1 sequence (Q15046 whole entry): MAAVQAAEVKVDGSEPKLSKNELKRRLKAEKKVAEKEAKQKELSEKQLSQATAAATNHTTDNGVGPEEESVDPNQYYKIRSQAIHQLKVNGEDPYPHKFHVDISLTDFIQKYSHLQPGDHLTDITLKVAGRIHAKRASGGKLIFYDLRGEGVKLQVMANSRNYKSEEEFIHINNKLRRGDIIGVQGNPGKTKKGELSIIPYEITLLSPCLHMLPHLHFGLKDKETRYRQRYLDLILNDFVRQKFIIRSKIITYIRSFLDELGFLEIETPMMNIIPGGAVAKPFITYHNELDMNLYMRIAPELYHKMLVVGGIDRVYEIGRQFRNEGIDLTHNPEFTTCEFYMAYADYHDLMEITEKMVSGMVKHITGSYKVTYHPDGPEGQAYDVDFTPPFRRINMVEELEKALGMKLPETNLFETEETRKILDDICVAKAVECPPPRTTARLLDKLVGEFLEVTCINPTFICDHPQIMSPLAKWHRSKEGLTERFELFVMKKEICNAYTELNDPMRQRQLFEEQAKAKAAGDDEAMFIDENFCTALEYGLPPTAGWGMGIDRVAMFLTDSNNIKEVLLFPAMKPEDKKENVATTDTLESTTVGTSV

[11] = Rat pharmacokinetics; type: in vivo; details: for half-life / Vd / AUC / Cmax / Tmax / bioavailability: male, Hans Wistar, whole blood; for half-life / Vd: 3 mg/kg, rat, IV; for half-life: read-out: T½ (converted); for Vd: read-out: Vdss; for bioavailability: read-out: F (oral bioavailability); for CLB: rat IV, clearance in blood
Protocol: Rat pharmacokinetics (Dundee)
As for mice except using male Hans Wistar rats (IV dose volume 1 mL/kg; PO dose volume: […]
Pharmacokinetic parameters were
derived from the blood concentration-time curve using WinNonLin Professional Software v
6.3 (Pharsight Corporation). […]

[12] = rat IV (DDD489 2.8, DDD508 3.47 mg/kg)

Nc1nc2c(c(C(F)(F)F)n1)C(=O)N(CC1CCCC(C(F)(F)F)C1)C2 (stereo not shown) [DDD489]
fraction unbound [1]: 0.3
Heps CLi (r) [2]: 1.9 mL/min/g
calves receiving treatment that shed Cryptosporidium after day 16 PI [3]: 3/7
Cryptosporidium shedding [3]: did not shed any detectable amount of Cryptosporidium
fecal scores [3]: normal to mild range
EC50 [4]: 978 nM
IC50 [5]: 850 nM
free blood concentration relative to EC90 [6]: only above the EC90 for around two hours
fraction unbound [7]: 0.26
Heps CLi (h) [8]: 1.1 mL/min/g
Heps CLi (d) [9]: 1.8 mL/min/g
IC50 [10]: 22000 nM
half-life [11]: 1.2 h
Vd [11]: 3.2 L/kg
AUC [11, 12]: 1200 ng·h/mL
AUC ([11]; rat PO 10 mg/kg): 137 ng·h/mL
Cmax ([11]; rat PO 10 mg/kg): 30 ng/mL
Tmax ([11]; rat PO 10 mg/kg): 2 h
bioavailability ([11]; rat PO 10 mg/kg): 3.2%
CLB [11]: 39 mL/min/kg

O=C(NCC1(O)CCCCC1)c1cc(=O)c2cc(O)ccc2o1 [DDD508]
fraction unbound [1]: 0.52
Heps CLi (r) [2]: 1.1 mL/min/g
calves receiving treatment that shed Cryptosporidium after day 16 PI [3]: 4/7
Cryptosporidium shedding [3]: did not shed any detectable amount of Cryptosporidium
fecal scores [3]: normal to mild range
EC50 [4]: > 1000 nM
IC50 [5]: 1700 nM
free blood concentration relative to EC90 [6]: only above the EC90 for around two hours
fraction unbound [7]: 0.53
Heps CLi (h) [8]: < 0.5 mL/min/g
Heps CLi (d) [9]: 1.2 mL/min/g
IC50 [10]: 10000 nM
half-life [11]: 0.6 h
Vd [11]: 2.1 L/kg
AUC [11, 12]: 900 ng·h/mL
AUC ([11]; rat PO 10 mg/kg): 367 ng·h/mL
Cmax ([11]; rat PO 10 mg/kg): 100 ng/mL
Tmax ([11]; rat PO 10 mg/kg): 1 h
bioavailability ([11]; rat PO 10 mg/kg): 14%
CLB [11]: 64 mL/min/kg
